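Following 48 hours of exposure in 96-well plates, responses at five concentrations were used to interpolate endpoints linearly. GI50 marks 50% less growth.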 The source made the active and inactive calls. No stated cut-off is given here; in the data, active = GI50 up to about 1.1 µM and inactive = higher.
How the values were obtained:
Test in all cases: NCI tumour cell line growth inhibition, 48 h
NCI-H522 = tested on: NCI-H522
A498 = tested on: A498
EKVX = tested on: EKVX
OVCAR-4 = tested on: OVCAR-4
CAKI-1 = tested on: CAKI-1
U-251 = tested on: U-251
K562 = tested on: K562
SK-OV-3 = tested on: SK-OV-3
OVCAR-8 = tested on: OVCAR-8
SK-MEL-2 = tested on: SK-MEL-2
786-0 = tested on: 786-0
LOX IMVI = tested on: LOX IMVI
TK-10 = tested on: TK-10
HCC 2998 = tested on: HCC 2998
UO-31 = tested on: UO-31
HCT-15 = tested on: HCT-15
RPMI-8226 = tested on: RPMI-8226

| Compound | GI50 (NCI-H522) | GI50 (A498) | GI50 (EKVX) | GI50 (OVCAR-4) | GI50 (CAKI-1) | GI50 (U-251) | GI50 (K562) | GI50 (SK-OV-3) | GI50 (OVCAR-8) | GI50 (SK-MEL-2) | GI50 (786-0) | GI50 (LOX IMVI) | GI50 (TK-10) | GI50 (HCC 2998) | GI50 (UO-31) | GI50 (HCT-15) | GI50 (RPMI-8226) |
| --- | --- | --- | --- | --- | --- | --- | --- | --- | --- | --- | --- | --- | --- | --- | --- | --- | --- |
| COC(=O)C1C(C(=O)OC)C2C(=O)C3C(C(=O)OC)C(C(=O)OC)C3C(=O)C12 (centres undefined) | > 100 µM (inactive) | > 100 µM (inactive) | > 100 µM (inactive) | > 100 µM (inactive) | > 100 µM (inactive) | > 100 µM (inactive) | > 100 µM (inactive) | > 100 µM (inactive) | > 100 µM (inactive) | > 100 µM (inactive) | > 100 µM (inactive) | > 100 µM (inactive) | > 100 µM (inactive) | > 100 µM (inactive) |  |  |  |
| O=C(Cc1nc(-c2ccccc2)cc(=O)n1-c1ccccc1Cl)c1ccncc1 | > 100 µM (inactive) | > 100 µM (inactive) | > 100 µM (inactive) | > 100 µM (inactive) | > 100 µM (inactive) | > 100 µM (inactive) | > 100 µM (inactive) | > 100 µM (inactive) | > 100 µM (inactive) | > 100 µM (inactive) | > 100 µM (inactive) | > 100 µM (inactive) | > 100 µM (inactive) | > 100 µM (inactive) | > 100 µM (inactive) | > 100 µM |  |
| Oc1c(Cl)c2nccnc2c2ccccc12 | > 100 µM (inactive) | > 100 µM (inactive) | > 100 µM (inactive) | > 100 µM (inactive) |  | > 100 µM (inactive) | > 100 µM (inactive) | > 100 µM (inactive) | > 100 µM (inactive) | > 100 µM (inactive) | > 100 µM (inactive) |  | > 100 µM (inactive) | > 100 µM (inactive) | > 100 µM (inactive) | > 100 µM | > 100 µM (inactive) |
| N#C[C@]12CC3(CC[C@H]1CC1(C2)OCCO1)OCCO3 | > 100 µM (inactive) | > 100 µM (inactive) |  | > 100 µM (inactive) | > 100 µM (inactive) | > 100 µM (inactive) | > 100 µM (inactive) | > 100 µM (inactive) | > 100 µM (inactive) | > 100 µM (inactive) | > 100 µM (inactive) |  | > 100 µM (inactive) | > 100 µM (inactive) | > 100 µM (inactive) | > 100 µM | > 100 µM (inactive) |
| Cc1[nH]c2ccccc2c1C(=O)CC1(O)C(=O)Nc2c(Cl)cc(Cl)cc21 (centres undefined) | 16.9 µM (inactive) | 33 µM (inactive) |  | 9.75 µM (inactive) | 40.8 µM (inactive) | 30.1 µM (inactive) | 20.9 µM (inactive) | 72.3 µM (inactive) | 24.3 µM (inactive) | 28.6 µM (inactive) | 26.8 µM (inactive) | 27 µM (inactive) | 39.4 µM (inactive) | 51.6 µM (inactive) | 26.3 µM (inactive) | 40.5 µM | 25.5 µM (inactive) |
| Cc1cc(Cc2cc(C)c(NC(=O)C(=O)C3C(=O)NC(=S)NC3=O)c(C(C)C)c2)cc(C(C)C)c1NC(=O)C(=O)C1C(=O)NC(=S)NC1=O | > 100 µM (inactive) | > 100 µM (inactive) | > 100 µM (inactive) | > 100 µM (inactive) | > 100 µM (inactive) | > 100 µM (inactive) | > 100 µM (inactive) | > 100 µM (inactive) | > 100 µM (inactive) |  | > 100 µM (inactive) | > 100 µM (inactive) | > 100 µM (inactive) | > 100 µM (inactive) | > 100 µM (inactive) | > 100 µM | > 100 µM (inactive) |
| C[N+]1=c2c3cccc4cccc(c(=O)n2CCC1)c43 | 15.8 µM (inactive) | 18.5 µM (inactive) | 24.9 µM (inactive) | 18.9 µM (inactive) | 31 µM (inactive) | 29.9 µM (inactive) | 9.02 µM (inactive) | 27.5 µM (inactive) | 17.7 µM (inactive) | 16.6 µM (inactive) | 35.9 µM (inactive) | 15.3 µM (inactive) | 14.6 µM (inactive) |  | 17.9 µM (inactive) | 35.6 µM | 19.6 µM (inactive) |
| [O-][Cl+3]([O-])([O-])O.c1ccc(/N=c2\snc(-c3ccccc3)s2)cc1 | > 100 µM (inactive) | > 100 µM (inactive) |  | > 100 µM (inactive) | > 100 µM (inactive) | > 100 µM (inactive) | > 100 µM (inactive) | > 100 µM (inactive) | > 100 µM (inactive) | > 100 µM (inactive) | > 100 µM (inactive) |  | > 100 µM (inactive) | > 100 µM (inactive) | > 100 µM (inactive) | > 100 µM | > 100 µM (inactive) |
| Cc1noc2c1C(=O)CCC2 | > 100 µM (inactive) |  | > 100 µM (inactive) | > 100 µM (inactive) | > 100 µM (inactive) |  | > 100 µM (inactive) | > 100 µM (inactive) | > 100 µM (inactive) | > 100 µM (inactive) | > 100 µM (inactive) | > 100 µM (inactive) | > 100 µM (inactive) |  | > 100 µM (inactive) |  | > 100 µM (inactive) |
| CC1=C(C(=O)Nc2ccccc2C)C(c2ccccc2C)C(C(=O)Nc2ccccc2C)=C(C)N1 | 14.8 µM (inactive) | 16.8 µM (inactive) | 20.7 µM (inactive) | 24.4 µM (inactive) |  | 19.5 µM (inactive) | 19.8 µM (inactive) |  | 19.1 µM (inactive) | 18.7 µM (inactive) | 17.6 µM (inactive) | 15 µM (inactive) | 28.8 µM (inactive) | 18.5 µM (inactive) | 14.5 µM (inactive) | 18.7 µM | 24 µM (inactive) |
| N#CN1CC[C@@H]2CC3(CCC2C1)OCCO3 (some centres undefined) | < 0.01 µM (active) | > 100 µM (inactive) | > 100 µM (inactive) | > 100 µM (inactive) | > 100 µM (inactive) | > 100 µM (inactive) | > 100 µM (inactive) | > 100 µM (inactive) | > 100 µM (inactive) | > 100 µM (inactive) | > 100 µM (inactive) |  | > 100 µM (inactive) | > 100 µM (inactive) | > 100 µM (inactive) | > 100 µM | > 100 µM (inactive) |
| CCOC(=O)c1[nH]c(CN(C)Cc2[nH]c(C(=O)OCC)c(C)c2C(=O)OCc2ccccc2)c(C(=O)OCc2ccccc2)c1C | 6.87 µM (inactive) | 15 µM (inactive) | 12.9 µM (inactive) | 6.24 µM (inactive) | 2.85 µM (inactive) | 12.1 µM (inactive) | 6.17 µM (inactive) |  | 24 µM (inactive) |  | 11.2 µM (inactive) | 4.75 µM (inactive) | 16.7 µM (inactive) | 14.4 µM (inactive) | 4.09 µM (inactive) | 8.3 µM |  |
| C[N+]12c3ccccc3O[B-]1(c1ccccc1)Oc1ccccc12 (centres undefined) | 15.3 µM (inactive) | > 100 µM (inactive) | 84.5 µM (inactive) | 31.6 µM (inactive) | 63.1 µM (inactive) | 16.6 µM (inactive) | 28.6 µM (inactive) | 33.7 µM (inactive) | 28.6 µM (inactive) |  | 35.9 µM (inactive) | 16.1 µM (inactive) | 23.5 µM (inactive) |  |  |  | 37.4 µM (inactive) |

From ChEMBL document CHEMBL1201862, “PubChem BioAssay data set” (2004)
